From ChEMBL document CHEMBL1123935 (J Med Chem, 1987)

Biological target: D(2) dopamine receptor (Rattus norvegicus, UniProt P61169)
Assay: Compound was tested for inhibitory activity against the binding of [3H]spiperone to Dopamine receptor D2 in rat striatal membranes
Type: cell membranes, Membrane

D(2) dopamine receptor, sequence (P61169 whole entry): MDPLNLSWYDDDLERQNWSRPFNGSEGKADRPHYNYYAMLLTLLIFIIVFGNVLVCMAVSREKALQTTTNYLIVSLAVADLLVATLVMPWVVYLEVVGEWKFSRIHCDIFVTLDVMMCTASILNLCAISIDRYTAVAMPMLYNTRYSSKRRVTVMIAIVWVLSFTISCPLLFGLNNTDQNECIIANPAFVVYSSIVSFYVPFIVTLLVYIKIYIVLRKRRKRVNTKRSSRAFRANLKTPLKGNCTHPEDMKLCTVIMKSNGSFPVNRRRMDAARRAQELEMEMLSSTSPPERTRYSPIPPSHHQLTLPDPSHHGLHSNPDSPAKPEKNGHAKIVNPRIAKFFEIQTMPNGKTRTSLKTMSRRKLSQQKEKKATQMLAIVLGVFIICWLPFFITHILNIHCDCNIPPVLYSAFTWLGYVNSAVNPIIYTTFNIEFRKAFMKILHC

Ki [nM]	Compound
2150	C[N+](C)(C)CCCN1c2ccccc2Sc2ccc(Cl)cc21
280	C[S+](C)CCCN1c2ccccc2Sc2ccc(Cl)cc21
